In brackets after ≈: the same amount, converted by molar mass.

What all share (assay): in vitro antibacterial activity, minimum inhibitory concentration (agar dilution)
What all share (format): cell-based
In general terms: In agar dilution the substance is mixed into plates at graded concentrations.

Experiment [1] has as its system Pseudomonas aeruginosa M-16. Particulars: ATCC15692, 20 h, read-out: Minimum Inhibitory concentration (MIC) Pseudomonas aeruginosa M-16. As for the experimental part: (§1) The compounds of this invention were tested for antibacterial activity according to the following procedure.
(§2) Nutrient broth and nutrient agar were prepared according to the conventional procedure. Nutrient agar was used as a vehicle. The stock solution was prepared at 100 μg/ml of the test material in the vehicle. Two-fold dilutions were made with the vehicle and then the diluted stock solution was added to a petri dish and solidified by chilling. Test organisms were grown in the nutrient broth for 20 hours at 37° C. The hardened surface was inoculated with a loopful of the test organism solution containing 1×10^6 cells per milliliter and incubated for 20 hours at 37° C. At the end of this period, growth of the organism was observed. […] The following Table 1 summarizes the activity of representative compounds as active antibacterial agents, and compares them with the reference drug Sulbenicillin.

Experiment [2] deals with Pseudomonas aeruginosa M-2008. Particulars: ATCC15691, 20 h, read-out: Minimum Inhibitory concentration (MIC) Pseudomonas aeruginosa M-2008. Here is the method:
as §1, §2

Experiment [3] has as its system Pseudomonas aeruginosa M-12. Particulars: ATCC15692, 20 h, read-out: Minimum Inhibitory concentration (MIC) Pseudomonas aeruginosa M-12. Here is the method:
as §1, §2

Consider `CC1(C)S[C@@H]2[C@H](NC(=O)[C@H](NC(=O)c3nc4cncnc4nc3O)c3ccc(O)cc3)C(=O)N2[C@H]1C(=O)O` [Compound 8], for which the MIC in experiment [1] is below 1.56 µg/mL.

As for `CC1(C)S[C@@H]2[C@H](NC(=O)[C@H](NC(=O)c3nc4cc(Br)cnc4nc3O)c3ccc(O)cc3)C(=O)N2[C@H]1C(=O)O` [Compound 6], the MIC in experiment [1] is below 1.5 µg/mL; in experiment [2], 3.1 µg/mL (≈ 5.02 µM).

For the compound `CC1(C)S[C@@H]2[C@H](NC(=O)[C@H](NC(=O)c3nc4cccnc4nc3O)c3ccc(O)cc3)C(=O)N2[C@H]1C(=O)O` [Compound 2, potassium 6-[D-2-(3-hydroxypyrido[2,3-b]pyrazine-2-carboxamido)-2-(p-hydroxyphenyl)acetamido]penicillanate], the MIC is below 1.5 µg/mL in experiment [3], 0.78 µg/mL in experiment [1] and 3.1 µg/mL in experiment [2].

Regarding `CC1(C)S[C@@H]2[C@H](NC(=O)[C@H](NC(=O)c3nc4cc(Cl)cnc4nc3O)c3ccc(O)cc3)C(=O)N2[C@H]1C(=O)O` [Compound 4], the MIC in experiment [1] was 3.1 µg/mL (≈ 5.41 µM); in experiment [2] it was 6.2 µg/mL (≈ 10.8 µM).

Turning to `CC1(C)S[C@@H]2[C@H](NC(=O)C(c3ccccc3)S(=O)(=O)O)C(=O)N2[C@H]1C(=O)O` (stereo partly drawn) [11 Sulbenicillin, Sulbenicillin, reference compound], the MIC in experiment [3], in experiment [1] and in experiment [2] was 25 µg/mL (≈ 60.3 µM) in each case.

As for `Cc1nc2nc(O)c(C(=O)N[C@@H](C(=O)N[C@@H]3C(=O)N4[C@@H]3SC(C)(C)[C@@H]4C(=O)O)c3ccc(O)cc3)nc2cc1Br` [Compound 10], in experiment [1], the MIC stood at 1.5 µg/mL (≈ 2.38 µM).

The record behind these values is patent US4164577A, “6-(2-Acylamino-2-arylacetamido)penicillanic acids” (priority 1977, dated 1979).
